What was measured:
[1] = tested on: B16/F10 melanoma; experiment: B16/F10 murine melanoma (iv./iv.) therapeutic model; format: in vivo, mice; conditions: iv. treatment, lung tumor nodules
Procedure: Female C57/BL6 mice (5/group) were inoculated iv. with 5×10^4 cells in 0.2 mL PBS (day 0). On days 10, 12, 14, 16, & 18 post-tumor inoculation, mice were treated iv. with the ether lipid to be tested, along with ELL-12 (L), D-EL, L-EL or Control (0.9% NaCl). Mice were sacrificed by carbon dioxide inhalation on day 22, lungs were excised, inflated and fixed with 10% Formalin. Lungs were counted “blind” for tumor nodules using a magnifier. The mean number of nodules per treatment group was determined.

[2] = tested on: human tumor cell lines (9 panels); experiment: NCI growth inhibition screen, all panels; format: cell-based; conditions: for activity as compared to ET-18-OCH3 (in words): all NCI panels; for activity compared to ET-18-OCH3 isomers (in words): colon and CNS panels of cell lines
Procedure: (§1) Candidates deemed suitable for in vivo testing were then synthesized in large scale quantities and some of this material was sent to the NCI's Developmental Therapeutics Program for a battery of growth inhibitory studies against various human tumor cell lines (60 cell lines, 9 different panels). The remainder of the material was used to assess in vivo efficacy using murine tumor models. Additionally, studies were conducted on the lead candidates to discern mechanism of action with particular emphasis on these agents apoptotic ability as measured by caspase 3 activity. The details (materials and methods) for these various assays are described further in the following discussion.
(§2) Ten compounds were also sent to NCI's Drug Discovery Program for screening against numerous human tumor cell lines (9 panels total: renal ovarian, colon, CNS, non-small cell lung, leukemia, breast, melanoma, and prostate). The data are shown in FIGS. 2a-i which also include data regarding D- and L-ET-18-OCH3 (listed as L-EL and D-EL in the figures). Upon examining the data, one is struck by how 1R and 1a′S standout in comparison to the other compounds, especially for the renal, ovarian, colon, and CNS panels.

[3] = tested on: HOP-62; experiment: NCI growth inhibition screen, non-small cell lung panel; format: cell-based, human; conditions: for Performance as compared to ET-18-O—CH3: HOP-62, NS cell lung, from GI50s; for activity compared to other compounds (in words): HOP-62 cells, NCI screen
Procedure: as §1, §2

[4] = tested on: MALME-3M; experiment: NCI growth inhibition screen, melanoma panel; format: cell-based, human; design: key to Performance as compared to ET-18-O—CH3: = means equivalent activity; + means that it appears to be significantly better (i.e., by ˜2x); < means it appears to be less active than ET18OCH3 (˜2x); a combination like =/+ or </+ means that activity is dependent upon the isomer; a combination like =/+ or </+ means that activity is dependent upon the isomer; conditions: for Performance as compared to ET-18-O—CH3: MALME-3M, Melanoma, from GI50s; for activity compared to ET-18-OCH3 (in words): melanoma MALME-3M cell line, NCI screen
Procedure: as §1, §2

[5] = tested on: HS 578T; experiment: NCI growth inhibition screen, breast panel; format: cell-based, human; design: key: = means equivalent activity; + means that it appears to be significantly better (i.e., by ˜2x); < means it appears to be less active than ET18OCH3 (˜2x); a combination like =/+ or </+ means that activity is dependent upon the isomer; a combination like =/+ or </+ means that activity is dependent upon the isomer; conditions: from GI50s
Procedure: as §1, §2

[6] = tested on: MDA-MB-231/ATCC; experiment: NCI growth inhibition screen, breast panel; format: cell-based, human; design: key: = means equivalent activity; + means that it appears to be significantly better (i.e., by ˜2x); < means it appears to be less active than ET18OCH3 (˜2x); a combination like =/+ or </+ means that activity is dependent upon the isomer; a combination like =/+ or </+ means that activity is dependent upon the isomer; conditions: from GI50s
Procedure: as §1, §2

[7] = tested on: MDA-MB-435; experiment: NCI growth inhibition screen, breast panel; format: cell-based, human; design: key: = means equivalent activity; + means that it appears to be significantly better (i.e., by ˜2x); < means it appears to be less active than ET18OCH3 (˜2x); a combination like =/+ or </+ means that activity is dependent upon the isomer; a combination like =/+ or </+ means that activity is dependent upon the isomer; conditions: MDA-MB-435, Breast; from GI50s
Procedure: as §1, §2

[8] = tested on: MDA-N; experiment: NCI growth inhibition screen, breast panel; format: cell-based, human; design: key: = means equivalent activity; + means that it appears to be significantly better (i.e., by ˜2x); < means it appears to be less active than ET18OCH3 (˜2x); a combination like =/+ or </+ means that activity is dependent upon the isomer; a combination like =/+ or </+ means that activity is dependent upon the isomer; conditions: from GI50s
Procedure: as §1, §2

[9] = tested on: NCI/ADR-RES; experiment: NCI growth inhibition screen, breast panel; format: cell-based, human; design: key: = means equivalent activity; + means that it appears to be significantly better (i.e., by ˜2x); < means it appears to be less active than ET18OCH3 (˜2x); a combination like =/+ or </+ means that activity is dependent upon the isomer; a combination like =/+ or </+ means that activity is dependent upon the isomer; conditions: from GI50s
Procedure: as §1, §2

[10] = tested on: BT-549; experiment: NCI growth inhibition screen, breast panel; format: cell-based, human; design: key to Performance as compared to ET-18-O—CH3: = means equivalent activity; + means that it appears to be significantly better (i.e., by ˜2x); < means it appears to be less active than ET18OCH3 (˜2x); a combination like =/+ or </+ means that activity is dependent upon the isomer; a combination like =/+ or </+ means that activity is dependent upon the isomer; conditions: for Performance as compared to ET-18-O—CH3: BT-549, Breast, from GI50s; for activity compared to ET-18-OCH3 (in words): BT-549 cell line, NCI screen
Procedure: as §1, §2

[11] = tested on: MCF-7; experiment: NCI growth inhibition screen, breast panel; format: cell-based, human; design: key to Performance as compared to ET-18-O—CH3: = means equivalent activity; + means that it appears to be significantly better (i.e., by ˜2x); < means it appears to be less active than ET18OCH3 (˜2x); a combination like =/+ or </+ means that activity is dependent upon the isomer; a combination like =/+ or </+ means that activity is dependent upon the isomer; conditions: for Performance as compared to ET-18-O—CH3: MCF-7, Breast, from GI50s; for activity compared to ET-18-OCH3 (in words): MCF-7 cell line, NCI screen
Procedure: as §1, §2

[12] = tested on: T-47D; experiment: NCI growth inhibition screen, breast panel; format: cell-based, human; design: key to Performance as compared to ET-18-O—CH3: = means equivalent activity; + means that it appears to be significantly better (i.e., by ˜2x); < means it appears to be less active than ET18OCH3 (˜2x); a combination like =/+ or </+ means that activity is dependent upon the isomer; a combination like =/+ or </+ means that activity is dependent upon the isomer; conditions: for Performance as compared to ET-18-O—CH3: T-47D, Breast, from GI50s; for GI50: breast cancer cell line T-47D, NCI screen
Procedure: as §1, §2

[13] = tested on: platelets in dog whole blood; experiment: Platelet aggregation in whole blood (Chronolog whole blood aggregometer)
Procedure: Briefly, whole citrated blood is diluted 1:2 with sterile saline and placed in a warm chamber with a mini stir bar. An electronic probe, measuring electrical resistance, is inserted in the sample. The aggregometer is calibrated and the baseline is observed to detect any spontaneous aggregation. The test sample is added and allowed to run for at least 6 minutes. If the sample is an agonist the platelets will start to aggregate and stick to the electronic probe causing resistance across the electrodes to increase. This resistance, in ohms, is measured 6 minutes post addition of sample. The test samples are run at 25, 100, 200, 400 and 800 uM and compared to 100 uM L-ET-18-OCH3.
Collection of Blood Sample for in vitro Platelet Aggregation Testing: Venous blood is collected in 4.5 mL Vacutainer tubes containing 0.129 M sodium citrate using a 21G needle or larger. Blood is immediately mixed by gentle inversion 15-20 times and kept at room temperature. Dilution ratio is 1 to 9 (3.8% citrate solution:blood). One (2.0 mL) Vacutainer tube containing EDTA is also collected for platelet counts. Complete blood counts (CBC) are measured on the CDC Technologies Hemavet 1500 to ensure that the test subject's platelets are within normal range. Amy vials of hemolytic blood or blood containing any clots should be discarded. Platelet aggregation testing must be completed within 3 hours of blood collection. After this time the ability of platelets to aggregate decreases.
Dilutions were prepared in PBS or saline at 40× concentration. (25 uL test sample are added to 1000 uL diluted blood (1:40)).

**Q.** For `CCCCCCCCCCCCCCCCCCOC[C@@H](COP(=O)([O-])OCC[N+](C)(C)C)OS(C)(=O)=O` [1a′S], which “activity against B16/F10 in mice (in words)” value [1] is on record?
**A.** Its value is “exhibited activity”.

**Q.** What about the “activity as compared to ET-18-OCH3 (in words)” value [2] of the same compound?
**A.** The value was “equal or greater in activity”.

**Q.** What about the “activity compared to ET-18-OCH3 isomers (in words)” value [2] of the same compound?
**A.** The value was “more active than even the ET-18-OCH3 isomers”.

**Q.** What about the “Performance as compared to ET-18-O—CH3” value [3] of the same compound?
**A.** The value was “+/=”.

**Q.** What about the “activity compared to other compounds (in words)” value [3] of the same compound?
**A.** Its value is “better than a few of the other compounds”.

**Q.** And the “Performance as compared to ET-18-O—CH3” value [4]?
**A.** Its value is 0.

**Q.** And the “activity compared to ET-18-OCH3 (in words)” value [4]?
**A.** The value was “ET-18-OCH3 was more active”.

**Q.** And the “Performance as compared to ET-18-O—CH3” value [5]?
**A.** The value was 0.

**Q.** What about the “Performance as compared to ET-18-O—CH3” value [6] of the same compound?
**A.** Its value is 0.

**Q.** What about the “Performance as compared to ET-18-O—CH3” value [7] of the same compound?
**A.** Its value is 0.

**Q.** And the “Performance as compared to ET-18-O—CH3” value [8]?
**A.** The value was 0.

**Q.** And the “Performance as compared to ET-18-O—CH3” value [9]?
**A.** Its value is 0.

**Q.** What about the “Performance as compared to ET-18-O—CH3” value [10] of the same compound?
**A.** The value was 0.

**Q.** And the “activity compared to ET-18-OCH3 (in words)” value [10]?
**A.** The value was “more active than ET-18-OCH3”.

**Q.** What about the “Performance as compared to ET-18-O—CH3” value [11] of the same compound?
**A.** Its value is 128.

**Q.** And the “activity compared to ET-18-OCH3 (in words)” value [11]?
**A.** Its value is “more active than ET-18-OCH3”.

**Q.** What about the “Performance as compared to ET-18-O—CH3” value [12] of the same compound?
**A.** Its value is “<”.

**Q.** What about the GI50 [12] of the same compound?
**A.** The GI50 was ≥ 15 µM.

**Q.** What about the “Relative Platelet Aggregation (Ohms)” value ([13]; 25 μM) of the same compound?
**A.** Its value is 0 Ohms.

**Q.** What about the “Relative Platelet Aggregation (Ohms)” value ([13]; 100 μM) of the same compound?
**A.** Its value is 0 Ohms.

**Q.** And the “Relative Platelet Aggregation (Ohms)” value ([13]; 200 μM)?
**A.** The value was 0 Ohms.

**Q.** And the “Relative Platelet Aggregation (Ohms)” value ([13]; 400 μM)?
**A.** The value was 0 Ohms.

**Q.** What about the “Relative Platelet Aggregation (Ohms)” value ([13]; 800 μM) of the same compound?
**A.** The value was 0 Ohms.

**Q.** How did the “activity against B16/F10 in mice (in words)” value [1] turn out when `CCCCCCCCCCCCCCCCCCOCC(COP(=O)([O-])OCC[N+](C)(C)C)OS(C)(=O)=O` (centres unmarked) [Compound 1aR] was run?
**A.** Its value is “no activity”.

**Q.** What about the “activity as compared to ET-18-OCH3 (in words)” value [2] of the same compound?
**A.** The value was “equal or greater in activity”.

**Q.** And the “activity compared to ET-18-OCH3 isomers (in words)” value [2]?
**A.** Its value is “more active than even the ET-18-OCH3 isomers”.

**Q.** What about the “Performance as compared to ET-18-O—CH3” value [3] of the same compound?
**A.** The value was “+/=”.

**Q.** And the “activity compared to other compounds (in words)” value [3]?
**A.** Its value is “better than a few of the other compounds”.

**Q.** And the “Performance as compared to ET-18-O—CH3” value [4]?
**A.** Its value is “<”.

**Q.** And the “activity compared to ET-18-OCH3 (in words)” value [4]?
**A.** The value was “ET-18-OCH3 was more active”.

**Q.** What about the “Performance as compared to ET-18-O—CH3” value [5] of the same compound?
**A.** The value was “=”.

**Q.** And the “Performance as compared to ET-18-O—CH3” value [6]?
**A.** The value was “=”.

**Q.** And the “Performance as compared to ET-18-O—CH3” value [7]?
**A.** The value was “=”.

**Q.** And the “Performance as compared to ET-18-O—CH3” value [8]?
**A.** Its value is “=”.

**Q.** And the “Performance as compared to ET-18-O—CH3” value [9]?
**A.** The value was “=”.

**Q.** What about the “Performance as compared to ET-18-O—CH3” value [10] of the same compound?
**A.** The value was “+”.

**Q.** What about the “activity compared to ET-18-OCH3 (in words)” value [10] of the same compound?
**A.** The value was “more active than ET-18-OCH3”.

**Q.** What about the “Performance as compared to ET-18-O—CH3” value [11] of the same compound?
**A.** The value was “+”.

**Q.** What about the “activity compared to ET-18-OCH3 (in words)” value [11] of the same compound?
**A.** The value was “more active than ET-18-OCH3”.

**Q.** What about the “Performance as compared to ET-18-O—CH3” value [12] of the same compound?
**A.** The value was “+”.

**Q.** And the GI50 [12]?
**A.** Its GI50 is < 2.5 µM.

**Q.** What about the “platelet aggregation response (in words)” value [13] of the same compound?
**A.** Its value is “none of the “L” isomer compounds (1cR or 1aR) evoked an aggregatory response”.

**Q.** And the “Relative Platelet Aggregation (Ohms)” value ([13]; 25 μM)?
**A.** The value was 0 Ohms.

**Q.** And the “Relative Platelet Aggregation (Ohms)” value ([13]; 100 μM)?
**A.** The value was 0 Ohms.

**Q.** And the “Relative Platelet Aggregation (Ohms)” value ([13]; 200 μM)?
**A.** Its value is 0 Ohms.

**Q.** And the “Relative Platelet Aggregation (Ohms)” value ([13]; 400 μM)?
**A.** The value was 0 Ohms.

**Q.** And the “Relative Platelet Aggregation (Ohms)” value ([13]; 800 μM)?
**A.** The value was 0 Ohms.
